Key:
[1] = target: DGKα (Homo sapiens (Human), UniProt P23743); experiment: In vitro DGKα inhibition assay (ADP-Glo); assay type: biochemical; conditions: His-tagged human recombinant enzyme, 0.1 nM DGKα, 50 μM ATP, 20 μM DLG, 90 minute incubation
Procedure: (§1) The DGKα and DGKξ biochemical reactions were performed using His-tagged human recombinant enzymes (Signal Chem, DGKα, #D21-1OBH; DGKξ, #D30-10H)) and DLG (Dilauroyl-sn-glycerol) lipid substrate (Signal Chem, #D430-59). ADP-Glo assay was performed using ADP-Glog™ kinase Assay kit (Promega, #V9104). The reactions were carried out in assay buffer containing 40 mM Tris, pH 7.5, 0.1% CHAPS, 0.1% Prionex, 40 mM NaCl, 5 mM MgCl2, 1 mM CaCl2, and 1 mM DTT. DGKα reactions contained 0.1 nM DGKα, 50 μM ATP, and 20 μM DLG. And DGKC reactions contained 0.4 nM DGK, 30 μM ATP, and 20 μM DLG.
(§2) For compound inhibition studies, 40 nL test compound in DMSO was added to wells of white polystyrene plates in 384-well (Greiner, #784075) or 1536-well format (Greiner, #782075). Compounds were added with top concentration of 2 mM with 11 point, 3-fold dilution series. Enzyme solution (contains 2×DGK enzyme concentration in Ix assay buffer) was added to the plate in 2 μL/well volume, followed by 2 μL/well of substrate solution (contains 2×concentration of ATP and DLG substrate in Ix assay buffer). Plates were then centrifuged for 1 min at 1200 RPM and sealed or lidded. For 4 μL reaction volume, test compounds were therefore diluted 100× to final top concentration of 20 μM. After 90 minute incubation, reactions were quenched by addition of 2 μL/well Promega ADP-Glo Reagent, followed by centrifugation and lidding. After 60 min incubation, 2 μL/well Promega Kinase Detection Reagent was added, plates centrifuged, and incubated for 30 min. Plates were then read using Luminescence method on BMG PHERAstar FSX plate reader. Percent inhibition was calculated and IC50s were determined using 4-parameter fit in Genedata Screener. Labcyte Echo acoustic dispenser was used for compound addition, and Formulatrix Tempest liquid handler was used for all reagent dispenses.

[2] = target: DGKζ (Homo sapiens (Human), UniProt Q13574); experiment: In vitro DGKζ inhibition assay (ADP-Glo); assay type: biochemical; conditions: His-tagged human recombinant enzyme, 0.4 nM DGK, 30 μM ATP, 20 μM DLG, 90 minute incubation
Sequence of DGKζ (Q13574 whole entry): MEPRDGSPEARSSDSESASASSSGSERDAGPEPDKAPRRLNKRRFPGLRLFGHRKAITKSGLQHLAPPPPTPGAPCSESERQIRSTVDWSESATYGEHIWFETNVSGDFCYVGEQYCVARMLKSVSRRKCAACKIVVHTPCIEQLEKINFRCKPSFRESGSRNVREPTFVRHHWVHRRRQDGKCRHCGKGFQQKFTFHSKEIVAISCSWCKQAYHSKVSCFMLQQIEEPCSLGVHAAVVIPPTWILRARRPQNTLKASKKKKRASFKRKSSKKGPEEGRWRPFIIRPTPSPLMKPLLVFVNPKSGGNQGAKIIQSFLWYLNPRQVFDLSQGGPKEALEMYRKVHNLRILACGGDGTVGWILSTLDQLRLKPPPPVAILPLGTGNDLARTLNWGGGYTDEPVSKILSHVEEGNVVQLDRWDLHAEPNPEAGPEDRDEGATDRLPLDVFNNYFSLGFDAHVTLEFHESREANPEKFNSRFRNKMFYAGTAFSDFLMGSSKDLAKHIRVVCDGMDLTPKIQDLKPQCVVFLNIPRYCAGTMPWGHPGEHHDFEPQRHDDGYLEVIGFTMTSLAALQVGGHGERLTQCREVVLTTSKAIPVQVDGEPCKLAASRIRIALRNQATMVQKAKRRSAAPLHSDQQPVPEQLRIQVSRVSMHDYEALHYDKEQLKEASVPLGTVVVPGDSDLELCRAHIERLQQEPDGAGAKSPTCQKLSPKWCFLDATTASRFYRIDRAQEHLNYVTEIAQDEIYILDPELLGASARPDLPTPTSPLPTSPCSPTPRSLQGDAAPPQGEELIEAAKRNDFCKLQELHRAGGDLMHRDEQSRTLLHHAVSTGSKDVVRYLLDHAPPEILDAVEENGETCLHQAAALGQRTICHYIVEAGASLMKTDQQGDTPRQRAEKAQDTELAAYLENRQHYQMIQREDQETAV
Procedure: as §1, §2

Sequence of DGKα (P23743 whole entry): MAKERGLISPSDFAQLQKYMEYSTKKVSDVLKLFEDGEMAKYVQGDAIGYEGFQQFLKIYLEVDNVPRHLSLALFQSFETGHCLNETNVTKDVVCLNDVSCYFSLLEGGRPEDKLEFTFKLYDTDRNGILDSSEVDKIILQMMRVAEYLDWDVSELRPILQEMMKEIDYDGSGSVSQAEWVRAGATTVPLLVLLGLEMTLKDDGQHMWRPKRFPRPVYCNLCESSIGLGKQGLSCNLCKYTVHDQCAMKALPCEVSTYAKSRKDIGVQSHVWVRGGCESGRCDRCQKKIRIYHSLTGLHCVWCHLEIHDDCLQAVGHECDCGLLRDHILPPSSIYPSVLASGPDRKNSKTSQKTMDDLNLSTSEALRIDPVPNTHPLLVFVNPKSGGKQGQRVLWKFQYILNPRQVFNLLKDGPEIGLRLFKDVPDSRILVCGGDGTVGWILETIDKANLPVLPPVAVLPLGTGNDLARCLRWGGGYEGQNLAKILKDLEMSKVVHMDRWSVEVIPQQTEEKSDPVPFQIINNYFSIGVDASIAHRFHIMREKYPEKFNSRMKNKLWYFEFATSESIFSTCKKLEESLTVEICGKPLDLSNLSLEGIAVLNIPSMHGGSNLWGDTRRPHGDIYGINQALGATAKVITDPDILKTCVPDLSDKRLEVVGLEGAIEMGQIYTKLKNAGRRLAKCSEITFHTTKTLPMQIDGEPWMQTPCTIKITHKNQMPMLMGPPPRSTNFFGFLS

IC50 [1] [nM] | IC50 [2] [nM] | Structure (SMILES)
≤ 20 | ≤ 20 | CC[C@@H]1CN(c2nc3nncn3c3c2nc(C)n3C[C@@H]2CCCO2)[C@@H](C)CN1[C@@H](c1ccc(OC(F)(F)F)cc1)C(C)C [Example 131, 4-((2S,5R)-5-ethyl-2-methyl-4-((R)-2-methyl-1-(4-(trifluoromethoxy)phenyl)propyl)piperazin-1-yl)-2-methyl-1-(((S)-tetrahydrofuran-2-yl)methyl)-1H-[1,2,4]triazolo[3,4-b]purine]
≤ 20 | ≤ 20 | CC[C@@H]1CN(c2nc3nncn3c3c2nc(C)n3C[C@@H]2CCCO2)[C@@H](C)CN1C(CO)(c1ccc(F)cc1)c1ccc(F)cc1 [Example 125, 2-((2R,5S)-2-Ethyl-5-methyl-4-(2-methyl-1-(((S)-tetrahydrofuran-2-yl)methyl)-1H-[1,2,4]triazolo[3,4-b]purin-4-yl)piperazin-1-yl)-2,2-bis(4-fluorophenyl)ethan-1-01]
≤ 20 | ≤ 20 | C[C@@H]1CN(c2nc3nncn3c3c2ncn3CCN(C)C)[C@@H](C)CN1C(c1ccc(Cl)c(F)c1)C1CC(F)(F)C1 (stereo partly drawn) [Example 136, 2-(4-((2S,5R)-4-((4-Chloro-3-fluorophenyl)(3,3-difluorocyclobutyl)methyl)-2,5-dimethylpiperazin-1-yl)-1H-[1,2,4]triazolo[3,4-b]purin-1-yl)-N,N-dimethylethan-1-amine]
≤ 20 | ≤ 20 | Cc1nc2c(N3C[C@@H](C)N(C(c4cc(F)ccc4F)C4CC(F)(F)C4)C[C@@H]3C)nc3nncn3c2n1C[C@@H]1CCCO1 (stereo partly drawn) [Example 53, 4-((2S,5R)-4-((3,3-Difluorocyclobutyl)(2,5-difluorophenyl)methyl)-2,5-dimethylpiperazin-1-yl)-2-methyl-1-(((S)-tetrahydrofuran-2-yl)methyl)-1H-[1,2,4]triazolo[3,4-b]purine]
≤ 20 | ≤ 20 | Cc1nc2c(N3C[C@@H](C)N(C(c4ccc(C(F)(F)F)cc4)c4ccc(C(F)(F)F)cc4)C[C@@H]3C)nc3nncn3c2n1C[C@@H]1CCCO1 [Example 134, 4-((2S,5R)-4-(Bis(4-(trifluoromethyl)phenyl)methyl)-2,5-dimethylpiperazin-1-yl)-2-methyl-1-(((S)-tetrahydrofuran-2-yl)methyl)-1H-[1,2,4]triazolo[3,4-b]purine]

Continued, compound first:

Structure (SMILES) | IC50 [1] [nM] | IC50 [2] [nM]
C[C@@H]1CN(c2nc3nncn3c3sc(-c4cn[nH]c4)nc23)[C@@H](C)CN1C(c1ccc(F)cc1)c1ccc(F)cc1 [Example 5, 4-((2S,5R)-4-(Bis(4-fluorophenyl)methyl)-2,5-dimethylpiperazin-1-yl)-2-(1H-pyrazol-4-yl)thiazolo[4,5-e][1,2,4]triazolo[4,3-a]pyrimidine] | ≤ 20 | > 2000
Cc1nc2c(N3C[C@@H](C)N([C@@H](c4ccc(F)c(F)c4)C4CC(F)(F)C4)C[C@@H]3C)nc3nncn3c2n1C[C@@H]1CCCO1 [Example 47, 4-((2S,5R)-4-((R)-(3,3-difluorocyclobutyl)(3,4-difluorophenyl)methyl)-2,5-dimethylpiperazin-1-yl)-2-methyl-1-(((S)-tetrahydrofuran-2-yl)methyl)-1H-[1,2,4]triazolo[3,4-b]purine] | ≤ 20 | ≤ 20
C[C@@H]1CN(c2nc3nncn3c3ccoc23)[C@@H](C)CN1C(c1ccc(F)cc1)c1ccc(F)cc1 [Example 7, 5-((2S,5R)-4-(Bis(4-fluorophenyl)methyl)-2,5-dimethylpiperazin-1-yl)furo[2,3-e][1,2,4]triazolo[4,3-a]pyrimidine] | ≤ 20 | > 2000
C[C@@H]1CN(c2nc3nncn3c3ccsc23)[C@@H](C)CN1C(c1ccc(F)cc1)c1ccc(F)cc1 [Example 8, 5-((2S,5R)-4-(Bis(4-fluor ophenyl)methyl)-2,5-dimethylpiperazin-1-yl)thieno[2,3-e][1,2,4]triazolo[4,3-a]pyrimidine] | – | 200 to 2000
